Where a SMILES comes first, the peptide text is derived from it. [ ]: non-standard residue; d: D form. The star is where a group is joined. Acetyl(2-naphthyl) = O=C(Cc1ccc2ccccc2c1)*; pY = N[C@@H](Cc1ccc(OP(=O)(O)O)cc1)C(=O)O
Key:
hMSCs [1] = experiment: hMSC biocompatibility (viability, caspase 3/7, Ki67); assay type: cell-based, human; details: 3-day treatment at various concentrations (25 to 500 µM), basal medium, WST-1 viability, caspase 3/7 and Ki67 at 200 µM, n = 3
Description: (§1) Cells were seeded onto a 96‐well flat‐bottom tissue culture plate (Corning, Falcon) at a density of 0.5 × 10^4 cells cm^−2 and incubated overnight to facilitate cell adhesion. The medium was then replaced with osteogenic medium containing various peptide compounds at concentrations ranging from 25 to 500 µM. As a control, cells were cultured in osteogenic medium supplemented with an equal volume of PBS. Subsequently, the cells were cultured for an additional 72 h, after which their viability was assessed using a WST‐1 assay kit (Roche Diagnostics, IN).
Figure S12. Chemical structure of peptide P6.
Figure S13. Chemical structure of peptide P7.
Figure S14. 3-day hMSCs viability upon the treatment of peptides P1, P2, P3, and control peptides P5, 1:1 mixture of P6/P7 at various concentrations in basal medium (mean ± SD, n = 3).
Figure S15. Bright field images and fluorescence images of hMSCs upon the treatment of peptides P1, P2, P3, and control peptides P5, 1:1 mixture of P6/P7 at 200 µM in basal medium for 3 days and stained with caspase 3/7 (green). […]
Figure S16. (a) Fluorescence images of hMSCs upon the treatment of peptides P1, P2, P3, and control peptides P5, 1:1 mixture of P6/P7 at 200 µM in basal medium for 3 days and co-stained with hochest (blue) and Ki67 (red). […] (b) Quantification of Ki67 positive ratio in hMSCs upon the treatments of panel a (mean ± SD, n = 3). […]

hMSCs [2] = assay type: cell-based, human; details: hMSCs pre-cultured 3 days with P3, P5 or P6/P7 (200 µM), then 3 days P4 at various concentrations, osteogenic medium, n = 3
Description: as §1
Figure S22. […]
Figure S23. Bright field images and fluorescence images of hMSCs upon the treatment of peptides P3, P5, and mixture of P6/P7 at a concentration of 200 µM for 3 days, followed with another 3-day treatment of P4 at a concentration of 200 µM in osteogenic medium. ‘Undifferentiated’ represents cell cultured in basal medium; ‘Ctrl’ represents cell cultured in osteogenic medium upon the treatment of 1xPBS buffer. […]
Figure S24. (a) Fluorescence images of hMSCs upon the treatment of peptides P3, P5, and mixture of P6/P7 at a concentration of 200 µM for 3 days, followed with another 3-day treatment of P4 at a concentration of 200 µM in osteogenic medium. ‘Undifferentiated’ represents cell cultured in basal medium; ‘Ctrl’ represents cell cultured in osteogenic medium upon the treatment of 1xPBS buffer. […]

| SMILES | biocompatibility with hMSCs (hMSCs [1]) | cytotoxicity of P4 on pre-cultured hMSCs (hMSCs [2]) |
| --- | --- | --- |
| CC[C@H](C)[C@H](NC(=O)[C@H](CC(C)C)NC(=O)[C@H](CC(C)C)NC(=O)[C@H](CCCCN)NC(=O)[C@@H](NC(=O)[C@H](Cc1ccccc1)NC(=O)[C@H](Cc1ccccc1)NC(=O)[C@H](Cc1ccccc1)NC(=O)[C@H](CCCNC(=N)N)NC(=O)[C@H](CO)NC(=O)[C@H](CCCNC(=N)N)NC(=O)[C@@H](N)CCCCN)[C@@H](C)CC)C(=O)O [P3, KRSRFFFIKLLI] (H-KRSRFFFIKLLI-OH) | good biocompatibility | – |
| O=C(O)CC[C@H](NC(=O)[C@H](Cc1ccc(OP(=O)(O)O)cc1)NC(=O)[C@H](Cc1ccccc1)NC(=O)[C@H](Cc1ccccc1)NC(=O)Cc1ccc2ccccc2c1)C(=O)O [P4, NapFFYpE] ({Acetyl(2-naphthyl)}-FF[pY]E-OH) | – | no cytotoxicity |
| O=C(Cc1ccc2ccccc2c1)N[C@@H](Cc1ccccc1)C(=O)N[C@@H](Cc1ccccc1)C(=O)O [P5, NapFF] | good biocompatibility | – |
